Here are results for 19 molecules from ChEMBL document CHEMBL4020833, “A Systematic Exploration of Macrocyclization in Apelin-13: Impact on Binding, Signaling, Stability, and Cardiovascular Effects” (J Med Chem, 2018).

Experiment [1] has as its target T1, Apelin receptor (Homo sapiens, UniProt P35414).
T1 sequence (P35414 whole entry): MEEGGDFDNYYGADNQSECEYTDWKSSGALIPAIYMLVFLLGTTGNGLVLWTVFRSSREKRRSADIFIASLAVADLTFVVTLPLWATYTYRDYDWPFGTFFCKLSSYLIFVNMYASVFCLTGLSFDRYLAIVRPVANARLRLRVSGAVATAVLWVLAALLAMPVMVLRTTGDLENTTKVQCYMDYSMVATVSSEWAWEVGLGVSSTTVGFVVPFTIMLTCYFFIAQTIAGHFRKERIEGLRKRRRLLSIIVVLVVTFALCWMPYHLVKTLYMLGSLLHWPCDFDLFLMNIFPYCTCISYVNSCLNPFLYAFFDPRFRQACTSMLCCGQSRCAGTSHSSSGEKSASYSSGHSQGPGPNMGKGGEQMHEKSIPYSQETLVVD
The experiment is described as follows: Displacement of [125I]-[Nle75, Tyr77] Pyr1-apelin-13 from YFP-tagged human APJ receptor expressed in HEK293 cell membranes after 1 hr by gamma-counting method.

Experiment [2] has as its target T1, Apelin receptor. In words: Activity at human APJ receptor expressed in HEK293 cells assessed as dissociation of Galphai1 from Gbetagamma subunit after 5 mins by BRET assay. In kind it is cell-based. On the technique in general: Bioluminescence resonance energy transfer reports proximity on the nanometre scale.
Experiment [3] has as its target T1, Apelin receptor. In words: Activity at GFP10-tagged human APJ receptor expressed in HEK293 cells assessed as induction of RlucII-tagged beta-arrestin-2 recruitment after 30 mins by BRET assay. In kind it is cell-based. On the technique in general: Recruitment of arrestin is a read-out of receptor activation apart from second messengers.

pEC50, pKi: −log10 of the molar value. Starred links: 1 amine or outer side, 2 acyl side, 3 side chain; linkers in the order of their positions; H or OH if unused. Positions of bridges follow the written chain, without caps; N, C: chain ends. Non-standard residues stand in square brackets, D forms with d. Residues, ends and D or L forms follow the SMILES beside them. *: point of attachment. X1 = O=C([C@H](CCN(CC=[*:3])S(=O)(=O)c1ccccc1[N+](=O)[O-])N[*:1])[*:2]; X6 = N=C(N)NCCC[C@H](NC(=O)[C@@H]1CCC(=O)N1)C(=O)[C@@H]1CCCN1*; X3 = C=CCN([C@@H](CCCNC(=N)N)C(=O)[*:2])[*:1]; X5 = O=C([C@H](CCNCC=[*:3])N[*:1])[*:2]; AllylGly = C=CC[C@H](N)C(=O)O; pGlu = O=C1CC[C@@H](C(=O)O)N1; Nle = CCCC[C@H](N)C(=O)O; CO = O=C([*:1])[*:2] Where only a bound is given, the exact number is not on record here.

Take `CCCC[C@H](NC(=O)[C@@H]1CCCN1C(=O)CNC(=O)[C@@H]1C/C=C\C[C@H](NC(=O)[C@@H]2CCCN2C(=O)[C@H](CCCNC(=N)N)NC(=O)[C@@H]2CCC(=O)N2)C(=O)N[C@@H](CC(C)C)C(=O)N[C@@H](CO)C(=O)N[C@@H](Cc2cnc[nH]2)C(=O)N1)C(=O)N1CCC[C@H]1C(=O)N[C@@H](Cc1ccccc1)C(=O)O` ([pGlu]RP[AllylGly]LSH[AllylGly]GP[Nle]PF-OH; staple (Z) 4-8): the pKi (usually the negative decadic logarithm of the Ki, by convention in mol/L) at Apelin receptor [1] is 5.22.

`C=CC[C@H](NC(=O)[C@H](CCCNC(=N)N)NC(=O)[C@@H]1CCCN1C(=O)[C@H](CCCNC(=N)N)NC(=O)[C@@H]1CCC(=O)N1)C(=O)N[C@@H](CO)C(=O)N[C@@H](Cc1cnc[nH]1)C(=O)N[C@@H](CCCCN)C(=O)N[C@@H](CC=C)C(=O)N1CCC[C@H]1C(=O)N[C@@H](CCCC)C(=O)N1CCC[C@H]1C(=O)N[C@@H](Cc1ccccc1)C(=O)O` ([pGlu]RPR[AllylGly]SHK[AllylGly]P[Nle]PF-OH) gave a pKi on Apelin receptor [1] of 8.41.

With `C=CC[C@H](NC(=O)[C@H](CC(C)C)NC(=O)[C@H](CCCNC(=N)N)NC(=O)[C@@H]1CCCN1C(=O)[C@H](CCCNC(=N)N)N(CC=C)C(=O)[C@@H]1CCC(=O)N1)C(=O)N[C@@H](Cc1cnc[nH]1)C(=O)N[C@@H](CCCCN)C(=O)NCC(=O)N1CCC[C@H]1C(=O)N[C@@H](CCCC)C(=O)N1CCC[C@H]1C(=O)N[C@@H](Cc1ccccc1)C(=O)O`, the pEC50 (commonly the EC50 on a negative log10 scale, so that one unit is a factor of ten) at Apelin receptor [2] is 8.24; on Apelin receptor [3], 6.63. The pKi at Apelin receptor [1] was 8.54.

`C=CC[C@H](NC(=O)[C@H](Cc1cnc[nH]1)NC(=O)[C@H](CO)NC(=O)[C@H](CC(C)C)NC(=O)[C@H](CC=C)NC(=O)[C@@H]1CCCN1C(=O)[C@H](CCCNC(=N)N)NC(=O)[C@@H]1CCC(=O)N1)C(=O)NCC(=O)N1CCC[C@H]1C(=O)N[C@@H](CCCC)C(=O)N1CCC[C@H]1C(=O)N[C@@H](Cc1ccccc1)C(=O)O` ([pGlu]RP[AllylGly]LSH[AllylGly]GP[Nle]PF-OH) gave a pKi on Apelin receptor [1] of 6.31.

With `CCCC[C@H](NC(=O)[C@@H]1CCCN1C(=O)[C@@H]1C/C=C\C[C@H](NC(=O)[C@H](CCCNC(=N)N)NC(=O)[C@@H]2CCCN2C(=O)[C@H](CCCNC(=N)N)NC(=O)[C@@H]2CCC(=O)N2)C(=O)N[C@@H](CO)C(=O)N[C@@H](Cc2cnc[nH]2)C(=O)N[C@@H](CCCCN)C(=O)N1)C(=O)N1CCC[C@H]1C(=O)N[C@@H](Cc1ccccc1)C(=O)O` ([pGlu]RPR[AllylGly]SHK[AllylGly]P[Nle]PF-OH; staple (Z) 5-9), at Apelin receptor [1], the negative-log Ki (pKi) is 7.39.

For `C=CC[C@H](NC(=O)[C@H](Cc1cnc[nH]1)NC(=O)[C@H](CO)NC(=O)[C@H](CC(C)C)NC(=O)[C@H](CCCNC(=N)N)N(CC=C)C(=O)[C@@H]1CCCN1C(=O)[C@H](CCCNC(=N)N)NC(=O)[C@@H]1CCC(=O)N1)C(=O)NCC(=O)N1CCC[C@H]1C(=O)N[C@@H](CCCC)C(=O)N1CCC[C@H]1C(=O)N[C@@H](Cc1ccccc1)C(=O)O` ([pGlu]RP[X3]LSH[AllylGly]GP[Nle]PF-OH), the negative logarithm of the EC50 (pEC50) on Apelin receptor [2] is 8.68; at Apelin receptor [3], 7.04. For the same molecule, at Apelin receptor [1], the pKi was 8.57.

With `CCCC[C@@H]1NC(=O)[C@@H](NC(=O)CNC(=O)[C@H](CCCCN)NC(=O)[C@H](Cc2cnc[nH]2)NC(=O)[C@H](CO)NC(=O)[C@H](CC(C)C)NC(=O)[C@H](CCCNC(=N)N)NC(=O)N2CCC[C@H]2C(=O)[C@H](CCCNC(=N)N)NC(=O)[C@@H]2CCC(=O)N2)C/C=C\C[C@@H](C(=O)O)NC(=O)[C@H](Cc2ccccc2)NC(=O)[C@@H]2CCCN2C1=O` ({X6-CO}-RLSHKG[AllylGly][Nle]PF[AllylGly]-OH; staple (Z) 7-11), on Apelin receptor [1], the pKi was 6.51.

With `C=CC[C@H](NC(=O)[C@H](Cc1cnc[nH]1)NC(=O)[C@H](CO)NC(=O)[C@H](CC(C)C)NC(=O)[C@H](CCCNC(=N)N)NC(=O)[C@@H]1CCCN1C(=O)[C@H](CCCNC(=N)N)NC(=O)[C@@H]1CCC(=O)N1)C(=O)NCC(=O)N1CCC[C@H]1C(=O)N[C@@H](CCCC)C(=O)N[C@@H](CC=C)C(=O)N[C@@H](Cc1ccccc1)C(=O)O` ([pGlu]RPRLSH[AllylGly]GP[Nle][AllylGly]F-OH), the negative-log EC50 (pEC50) on Apelin receptor [2] was 9.10; at Apelin receptor [3] it was 7.24. The same molecule showed a pKi at Apelin receptor [1] of 8.64.

On Apelin receptor [1], `C=CC[C@H](NC(=O)CNC(=O)[C@H](CCCCN)NC(=O)[C@H](Cc1cnc[nH]1)NC(=O)[C@H](CC=C)NC(=O)[C@H](CC(C)C)NC(=O)[C@H](CCCNC(=N)N)NC(=O)[C@@H]1CCCN1C(=O)[C@H](CCCNC(=N)N)NC(=O)[C@@H]1CCC(=O)N1)C(=O)N[C@@H](CCCC)C(=O)N1CCC[C@H]1C(=O)N[C@@H](Cc1ccccc1)C(=O)O` ([pGlu]RPRL[AllylGly]HKG[AllylGly][Nle]PF-OH) showed a pKi of 6.71.

For the molecule `CCCC[C@@H]1NC(=O)[C@@H]2CCCN2C(=O)[C@@H](N)CCNC/C=C\C[C@@H](C(=O)O)NC(=O)[C@@H]2CCCN2C1=O` (H-[X5]P[Nle]P[AllylGly]-OH; staple (Z) 1-5), the pKi at Apelin receptor [1] is < 5.00.

Regarding `CCCC[C@@H]1NC(=O)[C@@H]2CCCN2C(=O)[C@@H](NC(=O)[C@H](CCCCN)NC(=O)[C@H](Cc2cnc[nH]2)NC(=O)[C@H](CO)NC(=O)[C@H](CC(C)C)NC(=O)[C@H](CCCNC(=N)N)NC(=O)[C@@H]2CCCN2C(=O)[C@H](CCCNC(=N)N)NC(=O)[C@@H]2CCC(=O)N2)CCN(S(=O)(=O)c2ccccc2[N+](=O)[O-])C/C=C\C[C@H](C(=O)O)NC(=O)[C@@H]2CCCN2C1=O`, the figures for the pEC50 at Apelin receptor [2] (hek293) and at Apelin receptor [3] (hek293) were 8.77 and 7.20, respectively. Further, the negative-log Ki (pKi) on Apelin receptor [1] (hek293) is 10.00.

Turning to `C=CC[C@H](NC(=O)[C@H](CCCNC(=N)N)NC(=O)[C@@H]1CCCN1C(=O)[C@H](CCCNC(=N)N)NC(=O)[C@@H](N)CC=C)C(=O)N[C@@H](CO)C(=O)N[C@@H](Cc1cnc[nH]1)C(=O)N[C@@H](CCCCN)C(=O)NCC(=O)N1CCC[C@H]1C(=O)N[C@@H](CCCC)C(=O)N1CCC[C@H]1C(=O)N[C@@H](Cc1ccccc1)C(=O)O`, the pEC50 at Apelin receptor [2] is 9.40; on Apelin receptor [3], 7.46. The molecule further showed a pKi at Apelin receptor [1] of 8.60.

As for `C=CC[C@H](NC(=O)[C@H](CO)NC(=O)[C@H](CC(C)C)NC(=O)[C@H](CCCNC(=N)N)NC(=O)[C@@H]1CCCN1C(=O)[C@H](CCCNC(=N)N)NC(=O)[C@@H]1CCC(=O)N1)C(=O)N[C@@H](CCCCN)C(=O)NCC(=O)N1CCC[C@H]1C(=O)N[C@@H](CC=C)C(=O)N1CCC[C@H]1C(=O)N[C@@H](Cc1ccccc1)C(=O)O` ([pGlu]RPRLS[AllylGly]KGP[AllylGly]PF-OH), the pEC50 on Apelin receptor [2] is 9.00; on Apelin receptor [3], 7.38. The molecule also showed a negative logarithm of the Ki (pKi) at Apelin receptor [1] of 9.52.

`CCCC[C@@H]1NC(=O)[C@@H]2CCCN2C(=O)[C@@H](NC(=O)[C@H](CCCCN)NC(=O)[C@H](Cc2cnc[nH]2)NC(=O)[C@H](CO)NC(=O)[C@H](CC(C)C)NC(=O)[C@H](CCCNC(=N)N)NC(=O)[C@@H]2CCCN2C(=O)[C@H](CCCNC(=N)N)NC(=O)[C@@H]2CCC(=O)N2)CCNC/C=C\C[C@@H](C(=O)O)NC(=O)[C@@H]2CCCN2C1=O` gave a negative logarithm of the Ki (pKi) at Apelin receptor [1] of 6.04.

`C=CC[C@H](NC(=O)[C@H](CC(C)C)NC(=O)[C@H](CCCNC(=N)N)NC(=O)[C@@H]1CCCN1C(=O)[C@H](CC=C)NC(=O)[C@@H]1CCC(=O)N1)C(=O)N[C@@H](Cc1cnc[nH]1)C(=O)N[C@@H](CCCCN)C(=O)NCC(=O)N1CCC[C@H]1C(=O)N[C@@H](CCCC)C(=O)N1CCC[C@H]1C(=O)N[C@@H](Cc1ccccc1)C(=O)O`: at Apelin receptor [1], the negative logarithm of the Ki (pKi) is 6.28.

For `CCCC[C@@H]1NC(=O)[C@@H]2CCCN2C(=O)[C@@H](N)CCN(S(=O)(=O)c2ccccc2[N+](=O)[O-])C/C=C\C[C@@H](C(=O)O)NC(=O)[C@@H]2CCCN2C1=O` (H-[X1]P[Nle]P[AllylGly]-OH; staple (Z) 1-5), on Apelin receptor [1], the negative logarithm of the Ki (pKi) is < 5.00.

On Apelin receptor [1] (hek293), `CCCC[C@@H]1NC(=O)[C@@H]2CCCN2C(=O)[C@@H](NC(=O)[C@H](CCCCN)NC(=O)[C@H](Cc2cnc[nH]2)NC(=O)[C@H](CO)NC(=O)[C@H](CC(C)C)NC(=O)[C@H](CCCNC(=N)N)NC(=O)[C@@H]2CCCN2C(=O)[C@H](CCCNC(=N)N)NC(=O)[C@@H]2CCC(=O)N2)CCNC/C=C\C[C@H](C(=O)O)NC(=O)[C@@H]2CCCN2C1=O` gave a pKi of 6.69.

`C=CC[C@H](NC(=O)[C@H](CO)NC(=O)[C@H](CC(C)C)NC(=O)[C@H](CCCNC(=N)N)NC(=O)[C@H](CC=C)NC(=O)[C@H](CCCNC(=N)N)NC(=O)[C@@H]1CCC(=O)N1)C(=O)N[C@@H](CCCCN)C(=O)NCC(=O)N1CCC[C@H]1C(=O)N[C@@H](CCCC)C(=O)N1CCC[C@H]1C(=O)N[C@@H](Cc1ccccc1)C(=O)O`: the pEC50 at Apelin receptor [2] was 8.04; on Apelin receptor [3] it was 6.56. The pKi on Apelin receptor [1] is 8.72.

Consider `C=CC[C@H](NC(=O)[C@H](Cc1ccccc1)NC(=O)[C@@H]1CCCN1C(=O)[C@H](CCCC)NC(=O)[C@H](CC=C)NC(=O)CNC(=O)[C@H](CCCCN)NC(=O)[C@H](Cc1cnc[nH]1)NC(=O)[C@H](CO)NC(=O)[C@H](CC(C)C)NC(=O)[C@H](CCCNC(=N)N)NC(=O)[C@@H]1CCCN1C(=O)[C@H](CCCNC(=N)N)NC(=O)[C@@H]1CCC(=O)N1)C(=O)O` ([pGlu]RPRLSHKG[AllylGly][Nle]PF[AllylGly]-OH), for which, at Apelin receptor [1], the pKi is 6.35.
